According to US20100240656A1, “COMPOUNDS AS HSP90 INHIBITORS” (ORYZON GENOMICS, S.A., priority 2007, published 2010):
pEC50, pIC50: −log10 of the molar value.

How the values were obtained:
Hsp90α = molecular target: T1, Hsp90α (Homo sapiens, UniProt P07900); assay: Human Hsp90α fluorescence polarization competition assay with Example 37 tracer; settings: displacement of 50 nM example 37 tracer, 125 nM Hsp90α, 1 h 30 min, 20° C.; read-out: Relative binding affinity values (IC50) obtained from FP measurements
T1 construct: purchased Stressgen Bioreagents SPP-776
Text: The aim of this study was to determine the binding ability of compounds of the invention to the N-terminal ATP binding site of Hsp90. For that purpose competition assays with fluorescently labeled Hsp90 binders were used (compounds of examples 37 and 41).
Compounds of examples 37 and 41 are structurally based on 8-(6-Iodo-benzo[1,3]dioxol-5-ylsulfanyl)-9-(3-isopropylamino-propyl)-9H-purin-6-ylamine, a known binder of the N-terminal ATP binding site of Hsp90 which has the ability of inhibiting the Hsp90 function (cf. Chiosis G. et al. “Identification of Potent Water Soluble Purine-Scaffold Inhibitors of the Heat Shock Protein 90”, J. Med. Chem., 2006, vol. 49, no. 1, p. 381). Compounds 37 and 41 keep the essential structural features of the known binder (which means that said compounds are able to bind to the ATP binding site) and incorporate a fluorescent probe which allows the detection of the binding by fluorescence polarization.
When the binders of examples 37 and 41 are used in the competition assay, in a first step said binders are allowed to interact with the N-terminal ATP binding site of Hsp90. Then the compounds of the invention are added and it is determined if they are able to bind to the N-terminal ATP binding site (which will imply that the binders of examples 37 and 41 have been replaced from the N-terminal ATP binding site). If after performing the assay, the binding between the tested compound of the invention and the Hsp90 is observed, this will be indicative that the compound of the invention has been bound to the ATP binding site of Hsp90 and, therefore, can inhibit the Hsp90.
Once compounds of examples 37 and 41 were synthesized as reported above, they were dissolved at 238 μM and 1 mM in DMSO respectively (Sigma-Aldrich, cat. No. 154938). Hsp90α was purchased from Stressgen Bioreagents (cat. No. SPP-776; Victoria, Canada). The assay buffer contained 100 mM Tris·HCl, pH 7.4, 20 mM KCl, 6 mM MgCl2. Before each use 5 μg/mL bovine serum albumin (BSA, Pierce, Rockford (Ill.), cat No. 23209), 0.25 mM TCEP (Sigma, cat No. 64706) and 0.01% NP40 (Nonidet P40 Substitute, Fluka, cat No. 74385) were freshly added (cf. Howes et al., “A fluorescence polarization assay for inhibitors of Hsp90”, Analytical Biochemistry, 2006, vol. 350, p. 202-213; Kim et al., “Development of a fluorescence polarization assay for the molecular chaperone Hsp90”, J. Biomol. Screen., 2004, vol. 9 (5)).
Fluorescence polarization measurements were performed on an Infinite F200 (Tecan, Austria). Measurements were taken in black 96-well microplates (Corning Costar No. 3650) in which both the excitation and the emission occurred from the top of the wells. In the Infinite F200, a xenon arc lamp provides excitation light that passes through a 485 nm (20-nm bandwidth) excitation filter and then a polarizer filter. A beam splitter filter directs the polarized excitation light into the well, and emitted fluorescence transmits back through the same beam-splitter filter, through a polarizer filter, and then through a 535 nm (25-nm bandwidth) emission filter for detection (Kim et al., supra). The read time per well was 20 μs, and the number of reads per well was 25.
Compounds were assayed over a three-fold dilution series in a 96-well plate format to determine IC50 values. The serial dilution was performed in a separate 96-well plate (Thermowell 96 well PCR plate, Non-Treated Polypropylene, Corning Costar No. 6551) at 50 times final assay concentration in DMSO. (Howes et al, supra). 2 μl of compound was transferred to a black 96-well plate (Corning Costar No. 3650) and 98 μL of reaction solution (100 mM Tris·HCl, pH 7.4, 20 mM KCl, 6 mM MgCl2, 5 μg/mL bovine serum albumin (BSA), 0.25 mM TCEP, 0.01% NP40, 50 nM the compound of example 37, 125 nM Hsp90α) was added per well. The plate was allowed to equilibrate for 1 h 30 min on a slow moving shaker at 20° C. in the dark. […]

HCT-116 = assay: Cell growth inhibition by AlamarBlue method, HCT-116; type: cell-based; settings: Homo sapiens; HCT-116, 72 hours; read-out: Cell growth inhibition values (EC50) obtained with AlamarBlue method
Description: The human colon cancer cell line HCT-116 and the human breast cell lines MCF-7 and SKBr3 were from the American Type Culture Collection (ATCC; CCL-247, HTB-22 and HTB-30, respectively).
The HCT-116 and SKBr3 cell lines were maintained in DMEM GlutaMAX (Invitrogen) supplemented with 10% fetal calf serum and the MCF-7 cell line was maintained in RPMI1640 GlutaMAX (Invitrogen) containing 1 mM sodium pyruvate and 10% fetal calf serum. Cells were grown in a humidified incubator at 37° C. in 5% CO2
Cells were plated in 96-well plates (Costar, 3596) at a density of 6000 cells/well in 50 μL medium 24 h before addition of the compounds. Compounds were then added in 8 concentrations, each in triplicate (dilution series of 1 to 3). To do so, a compound-dilution plate at 200× the screening concentrations was prepared in DMSO 100% (Sigma, 154938). Then, 1.7 μL of the 200× diluted compounds were transferred to a new plate and 170 μL of media were added and mixed with the pipette (plate at 2×). Columns 11 and 12 of this plate (controls) were filled with 1% DMSO in cell media (i.e. 1.7 μL DMSO and 170 μL cell media). Finally, 50 μL of this intermediate plate at 2× were transferred to the plate containing the seeded cells and slowly shaken manually. Cells were grown as described above. AlamarBlue viability assay (Biosource, Invitrogen, DAL1100) was performed 72 hours later following manufacturer's protocol. In brief, AlamarBlue diluted in media was added to cells to have a 5% solution (a 2× solution was prepared in media and 100 μL of this solution were transferred to each well, i.e. final volume of 200 μL). Cells were incubated at 37° C., 3 hours and at room temperature for an additional 30 min. Cells with no compound and, cells with no compound and lysed with triton X-100 (30 μL/well added 10 min before treatment with AlamarBlue) were used as controls (6 replicates of each). Fluorescence was monitored at 530 nm excitation and 590 nm emission wavelengths. Results were quantified using ELx800 Universal Microplate Reader (Bio-Tek Instruments, Inc.). EC50 were calculated as the dose of compound required to inhibit cell growth by 50%.

| pIC50 (Hsp90α) | pEC50 (HCT-116) | Compound |
| --- | --- | --- |
| 6.06 | 4.63 | NCCCCCn1c(Sc2cc3c(cc2I)OCO3)nc(C(N)=O)c1N [Example 6, 5-amino-1-(5-amino-pentyl)-2-(6-iodo-benzo[1,3]dioxol-5-ylsulfanyl)-1H-imidazole-4-carboxamide] |
| 5.77 | 4.74 | CCCCn1c(Sc2cc3c(cc2I)OCO3)nc(C(N)=O)c1N [Example 10, 5-amino-1-butyl-2-(6-iodo-benzo[1,3]dioxol-5-ylsulfanyl)-1H-imidazole-4-carboxamide] |
